From US20260130395A1, “Water Dispersible Botanical Compositions” (Aquila Black Limited, priority 2021, published 2026)

Key:
[1] = Stability of cannabinoid compounds and Vitamin E components in Beverage 1 (AB White) by LCMSMS; type: physicochemical; conditions: AB White stored at 21-25° C.
[2] = Stability of cannabinoid entourage and Vitamin E components of the powder concentrate by LCMSMS; type: physicochemical; conditions: powder stored at 21-25° C.
Protocol: At each time period, 0.05 g of powder was dissolved in 10 ml-15 of ethanol, diluted to fall within the analytical range, and injected into the LCMSMS for analysis.

SMILES: CCCCCc1cc(O)c2c(c1)OC1(C)CCC3C1C2C3(C)C (stereo not drawn) [CBL, cannabicyclol]
- Stability of Plant-Derived Cannabinoid Compounds in AB White, 21-25° C. ([1]; 29 days): 0.552 µg/mL
- Stability of Plant-Derived Cannabinoid Compounds in AB White, 21-25° C. ([1]; 30 days): 0.543 µg/mL
- Stability of Plant-Derived Cannabinoid Compounds in AB White, 21-25° C. ([1]; 60 days): 0.544 µg/mL
- Stability of Plant-Derived Cannabinoid Compounds in AB White, 21-25° C. ([1]; 90 days): 0.541 µg/mL
- Stability of Plant-Derived Cannabinoid Compounds in AB White, 21-25° C. ([1]; 120 days): 0.516 µg/mL
- Stability of Plant-Derived Cannabinoid Compounds in AB White, 21-25° C. ([1]; 150 days): 0.517 µg/mL
- Stability of Plant-Derived Cannabinoid Compounds in AB White, 21-25° C. ([1]; 180 days): 0.527 µg/mL
- Stability of Plant-Derived Cannabinoid Compounds in AB White, 21-25° C. ([1]; 210 days): 0.514 µg/mL
- Stability of Plant-Derived Cannabinoid Compounds in AB White, 21-25° C. ([1]; 240 days): 0.515 µg/mL
- Stability of Plant-Derived Cannabinoid Compounds in AB White, 21-25° C. ([1]; 270 days): 0.535 µg/mL
- Stability of Plant-Derived Cannabinoid Compounds in AB White, 21-25° C. ([1]; 300 days): 0.532 µg/mL
- Stability of Plant-Derived Cannabinoid Compounds in AB White, 21-25° C. ([1]; 330 days): 0.526 µg/mL
- Stability of Plant-Derived Cannabinoid Compounds in AB White, 21-25° C. ([1]; 360 days): 0.526 µg/mL
- Stability of Plant-Derived Cannabinoid Compounds in AB White, 21-25° C. ([1]; 390 days): 0.518 µg/mL
- Stability of Plant-Derived Cannabinoid Compounds in AB White, 21-25° C. ([1]; 420 days): 0.523 µg/mL
- Stability of Plant-Derived Cannabinoid Compounds in AB White, 21-25° C. ([1]; 450 days): 0.521 µg/mL
- Stability of Plant-Derived Cannabinoid Compounds in AB White, 21-25° C. ([1]; 480 days): 0.510 µg/mL
- Stability of Plant-Derived Cannabinoid Compounds in AB White, 21-25° C. ([1]; 510 days): 0.503 µg/mL
- Stability of Plant-Derived Cannabinoid Compounds in AB White, 21-25° C. ([1]; 540 days): 0.510 µg/mL
- Stability of Plant-Derived Cannabinoid Compounds in AB White, 21-25° C. ([1]; 570 days): 0.505 µg/mL
- Stability of Plant-Derived Cannabinoid Compounds in Powder Concentrate ([2]; 0 days): 0.050 mg/g powder
- Stability of Plant-Derived Cannabinoid Compounds in Powder Concentrate ([2]; 1 days): 0.051 mg/g powder
- Stability of Plant-Derived Cannabinoid Compounds in Powder Concentrate ([2]; 2 days): 0.049 mg/g powder
- Stability of Plant-Derived Cannabinoid Compounds in Powder Concentrate ([2]; 3 days): 0.050 mg/g powder
- Stability of Plant-Derived Cannabinoid Compounds in Powder Concentrate ([2]; 5 days): 0.052 mg/g powder
- Stability of Plant-Derived Cannabinoid Compounds in Powder Concentrate ([2]; 8 days): 0.050 mg/g powder
- Stability of Plant-Derived Cannabinoid Compounds in Powder Concentrate ([2]; 9 days): 0.050 mg/g powder
- Stability of Plant-Derived Cannabinoid Compounds in Powder Concentrate ([2]; 10 days): 0.050 mg/g powder
- Stability of Plant-Derived Cannabinoid Compounds in Powder Concentrate ([2]; 11 days): 0.052 mg/g powder
- Stability of Plant-Derived Cannabinoid Compounds in Powder Concentrate ([2]; 12 days): 0.052 mg/g powder
- Stability of Plant-Derived Cannabinoid Compounds in Powder Concentrate ([2]; 15 days): 0.048 mg/g powder
- Stability of Plant-Derived Cannabinoid Compounds in Powder Concentrate ([2]; 16 days): 0.049 mg/g powder
- Stability of Plant-Derived Cannabinoid Compounds in Powder Concentrate ([2]; 17 days): 0.049 mg/g powder
- Stability of Plant-Derived Cannabinoid Compounds in Powder Concentrate ([2]; 18 days): 0.052 mg/g powder
- Stability of Plant-Derived Cannabinoid Compounds in Powder Concentrate ([2]; 19 days): 0.052 mg/g powder
- Stability of Plant-Derived Cannabinoid Compounds in Powder Concentrate ([2]; 22 days): 0.051 mg/g powder
- Stability of Plant-Derived Cannabinoid Compounds in Powder Concentrate ([2]; 23 days): 0.051 mg/g powder
- Stability of Plant-Derived Cannabinoid Compounds in Powder Concentrate ([2]; 24 days): 0.050 mg/g powder
- Stability of Plant-Derived Cannabinoid Compounds in Powder Concentrate ([2]; 25 days): 0.050 mg/g powder
- Stability of Plant-Derived Cannabinoid Compounds in Powder Concentrate ([2]; 26 days): 0.051 mg/g powder
- Stability of Plant-Derived Cannabinoid Compounds in Powder Concentrate ([2]; 29 days): 0.048 mg/g powder
- Stability of Plant-Derived Cannabinoid Compounds in Powder Concentrate ([2]; 30 days): 0.051 mg/g powder
- Stability of Plant-Derived Cannabinoid Compounds in Powder Concentrate ([2]; 60 days): 0.050 mg/g powder
- Stability of Plant-Derived Cannabinoid Compounds in Powder Concentrate ([2]; 90 days): 0.050 mg/g powder
- Stability of Plant-Derived Cannabinoid Compounds in Powder Concentrate ([2]; 120 days): 0.048 mg/g powder
- Stability of Plant-Derived Cannabinoid Compounds in Powder Concentrate ([2]; 150 days): 0.050 mg/g powder
- Stability of Plant-Derived Cannabinoid Compounds in Powder Concentrate ([2]; 180 days): 0.049 mg/g powder
- Stability of Plant-Derived Cannabinoid Compounds in Powder Concentrate ([2]; 210 days): 0.052 mg/g powder
- Stability of Plant-Derived Cannabinoid Compounds in Powder Concentrate ([2]; 240 days): 0.049 mg/g powder
- Stability of Plant-Derived Cannabinoid Compounds in Powder Concentrate ([2]; 270 days): 0.051 mg/g powder
- Stability of Plant-Derived Cannabinoid Compounds in Powder Concentrate ([2]; 300 days): 0.050 mg/g powder
- Stability of Plant-Derived Cannabinoid Compounds in Powder Concentrate ([2]; 330 days): 0.049 mg/g powder
- Stability of Plant-Derived Cannabinoid Compounds in Powder Concentrate ([2]; 360 days): 0.050 mg/g powder
- Stability of Plant-Derived Cannabinoid Compounds in Powder Concentrate ([2]; 390 days): 0.052 mg/g powder
- Stability of Plant-Derived Cannabinoid Compounds in Powder Concentrate ([2]; 420 days): 0.050 mg/g powder
- Stability of Plant-Derived Cannabinoid Compounds in Powder Concentrate ([2]; 450 days): 0.052 mg/g powder
- Stability of Plant-Derived Cannabinoid Compounds in Powder Concentrate ([2]; 480 days): 0.051 mg/g powder
- Stability of Plant-Derived Cannabinoid Compounds in Powder Concentrate ([2]; 510 days): 0.050 mg/g powder
- Stability of Plant-Derived Cannabinoid Compounds in Powder Concentrate ([2]; 540 days): 0.048 mg/g powder
- Stability of Plant-Derived Cannabinoid Compounds in Powder Concentrate ([2]; 570 days): 0.050 mg/g powder
